# Measurements reported in patent US20210052566A1, “METHODS FOR TREATING HEPATITIS B VIRUS (HBV) INFECTION” (INSERM (INSTITUT NATIONAL DE LA SANTÉ ET DE LA RECHERCHE …, priority 2018, published 2021).
# Legend:
# SRSF10 = SRSF10 (Homo sapiens, UniProt O75494); details: cited from earlier work
# HBV genotype D [1] = assay: HBV replication in persistently infected primary human hepatocytes (PHH); type: cell-based, Hepatitis B virus; details: 10 microM
# From the text: FIG. 9. Effect of 1C8 on persistently infected primary human hepatocytes. Two different batches of PHH from two different donors were used in these experiments (Batch 1: panels A, B, and C; Batch 2: panels D, and E). A) PHH were infected with HBV genotype D at a MOI of 100 vge/cell for 4 days before being treated trice every 2-3 days with indicated molecules at a concentration of 10 microM. B) Intracellular total RNA were extracted from cells and subjected to RT-qPCR to detect HBV pgRNA and total HBV RNA. C) HBs and HBe secreted antigens in supernatant were quantified by ELISA. D) PHH were infected with HBV genotype D at a MOI of 100 vge/cell. 6 days after the infection, cells were treated five times with indicated molecules at a concentration of 10 microM. Supernatant was harvested after each treatment and cells were harvested at day 13 post infection. E) HBe and HBs secreted antigens in supernatant were quantified by ELISA. Results are the mean+SD of n=3 (panels A, B, and C) or n=4 (panels D and E).
# Primary human hepatocytes (PHH) were freshly prepared from human liver resections obtained from the Centre Léon Bérard (Lyon) with French ministerial authorizations as previously described (Leycluse and Alexandre, 2010). […]
# Secreted HBe and HBs antigens and intracellular HBV RNA were analyzed as described in EXAMPLE 1.
# HBV genotype D [2] = assay: De novo establishment of HBV infection/cccDNA in naive dHepaRG, genotype D (treatment before and during inoculation); type: cell-based, Hepatitis B virus
# Procedure: FIG. 1. Experimental outlines. Treatment schemes: (a) Treatments in pre-infection: dHepaRG cells were treated for 24 h (at day −1) with 100 nM of PreS1 peptide (PreS1-pep) or 10 μM of 1C8, or untreated (NT). At day 0, cells were inoculated with HBV (MOI=250) or with HDV (MOI=25) in the presence of drugs for 24 h. For the tenofovir control (TDF at 10 μM), cells were treated at day 1 and 4 post-infection. Supernatant and cells were harvested at day 7 post-infection. (b) Treatments in post-infection: dHepaRG cells were inoculated with HBV (MOI=250) or with HDV (MOI=25). At days 4, 7 and 9 post infection, cells were treated with TDF 10 μM, lamivudine (3TC) at 10 μM, 1C8 10 μM or untreated (NT). Supernatant and cells were harvested at day 11 postinfection.
# FIG. 7. Effect of 1C8 on de novo establishment of ccDNA in dHepaRG (genotype D). […] B) HBs and HBe secreted antigens in supernatant were quantiUied by ELISA, whereas HBV DNA contained in virions was quantified by qPCR after viral nucleic acid extraction from supernatant. […] Statistics were done by two-tailed Mann-Whitney test, with following signiUicativity: *P<0.05, **P<0.01, ***P<0.001, ****P<0.0001. nd=not determined.
# Human liver progenitor HepaRG cells were cultured in Williams medium (ThermoFisher) supplemented with 10% of FBS (Perbio), Penicillin/Streptomycin (500 U/mL), glutamine (2 mM), hydrocortisone Upjohn (2.5 mg/L; Serb laboratory), insulin (5 mg/L; Sigma Aldrich). […] The multiplicity of infection (MOI; expressed as virus genome equivalent/cell) is indicated in the figure legends, but was of 100 vge/cell if not precised.
# From cell culture supernatants, secreted HBe and HBs antigens were quantified by ELISA, using a chemiluminescence immunoassay kit (Autobio, China) following manufacturer's instructions. […]
# A HBV standard was used for quantification of extracellular viral DNA and RNA. For cccDNA quantification total DNA was digested by T5 exonuclease (New England Biolabs) for 6 hours at 37° C. then submitted to qPCR using Taqman Fast Advanced Master Mix (Life Technologies). […]
# Sequence of SRSF10 (O75494 whole entry): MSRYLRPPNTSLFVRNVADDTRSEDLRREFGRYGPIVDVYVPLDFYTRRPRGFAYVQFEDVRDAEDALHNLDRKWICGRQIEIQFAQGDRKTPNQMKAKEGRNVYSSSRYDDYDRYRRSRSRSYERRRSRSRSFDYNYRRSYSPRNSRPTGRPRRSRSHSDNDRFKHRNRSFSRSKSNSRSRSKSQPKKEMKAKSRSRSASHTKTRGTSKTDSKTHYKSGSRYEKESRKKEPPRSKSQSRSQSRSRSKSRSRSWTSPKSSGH
smiles,measurement,setting,value
"Cn1ccc(=O)c(C(=O)Nc2nsc3ccc([N+](=O)[O-])cc23)c1 [1C8, 4-pyridinonebenzisothiazole carboxamide]",SRSF10 phosphorylation at serine 133,SRSF10,inhibit SRSF10 phosphorylation at serine 133
same,amount of intracellular viral RNAs (total and pgRNA),HBV genotype D [1],significant reduction
same,decrease of secreted viral antigens HBe and HBs (viral replication),"HBV genotype D [1]; two donors, MOI 100 vge/cell",> 60%
same,inhibition at 10 µM,"HBV genotype D [2]; Hepatitis B virus, dHepaRG treated before and during HBV inoculation, 10 microM",50%
same,"other viral markers (intracellular RNAs, HBeAg, HBsAg), genotype D","HBV genotype D [2]; dHepaRG treated before and during inoculation, 10 microM",also reduced
same,"inhibition of cccDNA establishment compared with controls (entry inhibitor, TDF)","HBV genotype D [2]; dHepaRG treated before and during inoculation, 1C8 and TDF 10 microM, Entry Inh. 100 nM, stated for genotypes D and C together","lower than that obtained with an entry inhibitor, but higher than that obtained with a NUC"
